Article PMC7684578, “Isopedopeptins A–H: Cationic Cyclic Lipodepsipeptides from Pedobacter cryoconitis UP508 Targeting WHO Top-Priority Carbapenem-Resistant Bacteria” (ACS Chemical Biology, 2020)

Columns and labels:
[1] = Bacterial membrane permeabilization assay (carboxyfluorescein leakage from liposomes); format: biochemical; conditions: large unilamellar liposomes from E. coli phospholipid extract, 45 min, 37 °C
cellular LPS receptors = target: cellular LPS receptors; design: method as in PMID 24281661; conditions: read-out: IC50 inhibition of binding of bacterial LPS to cellular receptors; cited from earlier work

## polymyxin B
[1]
  EC50: 1000 nM
[1]; listed as Polymyxin B
  EC50: ~1000 nM
Cellular LPS receptors
  IC50: 3.6 nM
